One data set in a line: in vivo. Particulars: male, CD-1 (ICR), mouse, iv, 5 mg/kg.
The next data set deals with CYP2D6 (Homo sapiens, UniProt P10635). Nature of the data set: in vitro. Particulars: microsomes, % inhibition, CYP2D6 inhibition (HLM, dextromethorphan substrate).
A further data set deals with CYP2B6 (Homo sapiens, UniProt P20813). Description: in vitro. The following applies: microsomes, % inhibition, CYP2B6 inhibition (HLM, bupropion substrate).
A further data set has as its system CYP3A. Description: in vitro. The following applies: human, microsomes, % inhibition.
The target of another data set is CYP2C8 (Homo sapiens, UniProt P10632). Nature of the data set: in vitro. The following applies: microsomes, % inhibition, CYP2C8 inhibition (HLM, amodiaquine substrate).
CYP2C8, sequence (P10632 whole entry): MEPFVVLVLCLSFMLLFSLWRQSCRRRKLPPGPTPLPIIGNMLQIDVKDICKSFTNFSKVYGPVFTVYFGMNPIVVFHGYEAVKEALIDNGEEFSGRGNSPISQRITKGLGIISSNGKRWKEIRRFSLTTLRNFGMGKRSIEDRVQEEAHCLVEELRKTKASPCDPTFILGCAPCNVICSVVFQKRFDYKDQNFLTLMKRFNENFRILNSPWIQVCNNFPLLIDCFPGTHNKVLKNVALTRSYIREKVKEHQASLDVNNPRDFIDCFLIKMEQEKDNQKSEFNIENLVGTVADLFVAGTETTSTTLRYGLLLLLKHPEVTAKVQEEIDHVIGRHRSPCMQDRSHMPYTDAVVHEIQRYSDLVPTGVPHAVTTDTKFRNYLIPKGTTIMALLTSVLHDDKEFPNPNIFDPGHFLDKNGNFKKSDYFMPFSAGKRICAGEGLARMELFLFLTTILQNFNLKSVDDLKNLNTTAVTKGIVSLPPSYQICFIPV
Another data set addresses CYP2C9 (Homo sapiens, UniProt P11712). Description: in vitro. Particulars: microsomes, % inhibition, CYP2C9 inhibition (HLM, diclofenac substrate).
In another data set the target is CYP2C19 (Homo sapiens, UniProt P33261). Nature of the data set: in vitro. The following applies: microsomes, % inhibition, CYP2C19 inhibition (HLM, omeprazole substrate).
CYP2C19, sequence (P33261 whole entry): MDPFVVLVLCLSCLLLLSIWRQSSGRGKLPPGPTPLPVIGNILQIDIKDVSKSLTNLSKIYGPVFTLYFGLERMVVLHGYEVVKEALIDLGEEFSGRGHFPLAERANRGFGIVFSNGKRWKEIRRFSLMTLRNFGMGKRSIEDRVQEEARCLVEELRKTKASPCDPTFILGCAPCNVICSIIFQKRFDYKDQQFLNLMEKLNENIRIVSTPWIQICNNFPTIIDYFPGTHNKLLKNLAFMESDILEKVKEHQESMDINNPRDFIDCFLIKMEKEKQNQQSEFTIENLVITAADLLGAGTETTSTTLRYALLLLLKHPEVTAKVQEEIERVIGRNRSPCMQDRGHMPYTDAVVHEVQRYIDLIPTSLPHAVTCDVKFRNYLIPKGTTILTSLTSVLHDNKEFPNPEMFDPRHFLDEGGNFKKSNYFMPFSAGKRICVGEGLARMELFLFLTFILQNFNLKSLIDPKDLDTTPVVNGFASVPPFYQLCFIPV
In the next data set the test system is CYP1A (printed CYPiA). Nature of the data set: in vitro. The following applies: human, microsomes, % inhibition, CYPiA inhibition (HLM, phenacetin substrate).
The nature of data set [1]: Single dose pharmacokinetics study, intravenous route. The following applies: 5 mg/kg.
For data set [2] the following is noted: male, CD-1 (ICR), mouse, in vivo, iv, 5 mg/kg.
Setting [3] is: Male CD1 mouse, blood, Composite Mean.
Where [4] appears, read: male, CD-1 (ICR), mouse, in vivo.

“And” between values parts separate entries of the source, which are not always exact repeats. Equal values may be shown once.

CYP2C9, sequence (P11712 whole entry): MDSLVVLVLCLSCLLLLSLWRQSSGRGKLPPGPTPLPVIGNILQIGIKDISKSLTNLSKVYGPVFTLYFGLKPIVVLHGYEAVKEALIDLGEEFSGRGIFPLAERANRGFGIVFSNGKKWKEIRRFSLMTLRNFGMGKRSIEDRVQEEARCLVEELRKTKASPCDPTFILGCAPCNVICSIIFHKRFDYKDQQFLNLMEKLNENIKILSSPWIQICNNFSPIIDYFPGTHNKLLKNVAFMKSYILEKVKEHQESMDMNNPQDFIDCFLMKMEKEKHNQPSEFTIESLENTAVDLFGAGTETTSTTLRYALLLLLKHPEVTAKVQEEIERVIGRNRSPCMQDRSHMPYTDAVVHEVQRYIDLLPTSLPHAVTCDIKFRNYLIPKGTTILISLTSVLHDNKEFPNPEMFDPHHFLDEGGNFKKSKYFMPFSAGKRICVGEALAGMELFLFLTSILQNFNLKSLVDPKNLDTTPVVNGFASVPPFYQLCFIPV
CYP2D6, sequence (P10635 whole entry): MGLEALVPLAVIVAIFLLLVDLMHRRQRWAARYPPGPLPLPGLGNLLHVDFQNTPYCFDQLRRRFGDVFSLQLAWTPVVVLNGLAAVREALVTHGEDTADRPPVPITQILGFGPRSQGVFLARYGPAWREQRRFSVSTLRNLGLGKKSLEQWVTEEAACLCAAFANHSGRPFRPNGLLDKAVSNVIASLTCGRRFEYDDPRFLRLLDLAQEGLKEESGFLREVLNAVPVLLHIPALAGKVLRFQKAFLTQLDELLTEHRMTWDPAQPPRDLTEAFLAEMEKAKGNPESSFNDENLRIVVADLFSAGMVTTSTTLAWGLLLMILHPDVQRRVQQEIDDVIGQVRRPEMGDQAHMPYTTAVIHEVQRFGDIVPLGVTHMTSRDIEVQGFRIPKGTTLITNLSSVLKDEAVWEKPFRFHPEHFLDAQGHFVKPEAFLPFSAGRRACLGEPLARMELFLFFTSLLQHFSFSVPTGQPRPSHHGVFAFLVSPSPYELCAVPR
CYP2B6, sequence (P20813 whole entry): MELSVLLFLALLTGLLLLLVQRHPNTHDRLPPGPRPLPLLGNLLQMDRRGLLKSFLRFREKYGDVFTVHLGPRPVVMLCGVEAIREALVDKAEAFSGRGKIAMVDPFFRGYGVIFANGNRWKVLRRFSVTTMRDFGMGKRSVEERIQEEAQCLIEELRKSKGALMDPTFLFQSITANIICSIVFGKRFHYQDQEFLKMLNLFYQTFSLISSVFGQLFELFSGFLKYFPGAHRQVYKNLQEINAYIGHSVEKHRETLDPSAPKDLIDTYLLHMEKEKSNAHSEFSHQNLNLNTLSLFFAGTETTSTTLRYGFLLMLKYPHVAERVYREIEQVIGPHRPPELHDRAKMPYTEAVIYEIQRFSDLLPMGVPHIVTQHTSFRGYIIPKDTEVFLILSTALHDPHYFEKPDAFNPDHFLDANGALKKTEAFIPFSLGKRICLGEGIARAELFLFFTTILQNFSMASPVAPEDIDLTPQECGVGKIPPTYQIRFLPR

A word on the Vd: it is a proportionality between amount in the body and measured concentration, not a real space. Low readings indicate confinement near the circulation, high ones extensive tissue distribution. Usually inhibition stands for the change of the read-out against control, counted positive when it falls. By AUC is commonly meant the area under the concentration-time curve, a measure of exposure. Usually AUC(0-inf) stands for the area under the concentration-time curve extrapolated to infinity. A low value points to low exposure. In general, Cmax refers to the peak of the concentration-time curve. Usually MRT stands for a mean duration of stay, worked out from the concentration-time curve. The term half-life denotes the time needed for the level to fall by half in the phase considered. As to `C[C@H]1COc2c(N3CC[C@@H](Nc4ncccn4)C3)c(F)cc3c(=O)c(C(=O)O)cn1c23` [KSN-82-L22], in the data set “in vivo”, the Vd lay within 1 to 4 L/kg. The inhibition at 10 µM against CYP2D6 was 0%; against CYP2B6 it was -1.32%; in the data set with CYP3A (CYP3A inhibition (HLM, midazolam substrate)), 25.2%; in the data set on CYP3A (CYP3A inhibition (HLM, testosterone substrate)), 6.52%; at CYP2C8 it was 3.05%; at CYP2C9, 12.8%. Besides, the inhibition at 10 µM at CYP2C19 was determined as 0.632%; with CYP1A (printed CYPiA), 9.56%. The “Blood CL” value in data set [1] (setting [3]) amounted to 12.5 mL/min/kg. Further, the Clast in data set [1] (setting [3]) was determined as 286 ng/mL. Also, the AUC in [1] (setting [4]) is 6420 ng·h/mL and 15.1 µM·h. This compound also gave an AUC(0-inf) in data set [1] (setting [4]) of 15.7 µM·h. The Cmax in data set [1] (setting [4]) is 9390 ng/mL and 22.1 µM. In data set [1] (setting [4]), the MRT turned out to be 1.8 h. Besides, in [1] (setting [4]), the half-life was 0.6 h. Further, the AUGinf in data set [2] turned out to be 6691 ng·h/mL. Also, the “Liver Blood Flow” value in [2] stood at 10.4%.
